Legend:
[1] = tested on: HCT 116 cells; test: In vitro cytotoxicity, CellTiter-Glo, 72 h (Example 11); assay type: cell-based; settings: Homo sapiens, HCT-116, 72 h
Procedure: Alternatively, the in vitro cytotoxicity of the compounds of the invention may be measured as described in this example. 180 μl of HCT 116 cells (ATCC, Cat # CCL-247) in McCoy's 5a Medium Modified (Sigma-Aldrich), St. Louis, Mo.)+10% fetal bovine serum were seeded at a density of 5,000 cells/well in a white opaque 96-well plate and incubated for 24 hours at […] in a 5% CO2 incubator. Twenty-four hours post cell seeding, 20 μl of 10× test compounds were diluted such that the final concentrations of the test compounds were in μM concentration. Half log dilutions were used, starting from 10 μM through 0.0001 μM. Puromycin and untreated cells were used as […]. The cells were incubated with the compounds for 72 hours at […] in a 5% CO2 incubator. After 72 hrs, 100 μl/well of CellTiter-Glo® Luminescent Cell Viability Assay reagent (Promega, Inc., Madison, Wis.; Cat # G7573) was added to the plates and incubated at room temperature for 30 minutes. The luminescence signals were captured using EnVision 2105 Multimode Plate Reader (PerkinElmer, Waltham, Mass.). The data were analyzed using non-linear regression curve fit (sigmoidal dose response) in GraphPad Prism software (GraphPad Software, La Jolla, Calif.) by plotting the concentration of drug on the X-axis and the mean % inhibition values on the Y-axis.

[2] = tested on: PANC 10.05; test: In vitro cytotoxicity on pancreatic cancer cell line (Example 12); assay type: cell-based, human
Procedure: (§1) Various cancer cell lines were obtained from the American Type Culture Collection (ATCC)). The cells were cultured in a humidified 5% CO2 incubator in a media consisting of RPMI 1640, L-glutamine, and 10% FBS. The cells were passaged as needed using standard tissue culture techniques. The cells were harvested and plated out into 96-well tissue culture treated plates at a density of 5000 cells per well. After allowing the cells to equilibrate for ˜24 hr in a humidified 5% CO2 incubator, the cells were treated with the test compounds at the indicated concentrations. The cells were exposed to the test compounds for three days with no media change. After the treatment period, CellTiter-Glo) Luminescent Cell Viability Assay reagent solution (Promega, Inc., Madison, Wis.; Cat. # G7573) was introduced to each well. The Cell TiterGlo-containing plates were then read on a SpectroMax® iD3 Multi-Mode Microplate reader (Molecular Devices, LLC, San Jose, Calif.). The degree of luminescence was dictated by the abundance of live cells.

[3] = tested on: PANC 05.04; test: as above; assay type: cell-based, human
Procedure: as §1

Compound	IC50 [1]	IC50 [2]	IC50 [3]
COC(=O)C[C@@H]1C[C@@]2(CO2)[C@H](O)[C@@H](/C=C/C(C)=C/C[C@@H]2O[C@H](C)[C@H](NC(=O)/C=C\C(C)c3cc(OC)no3)C[C@@H]2C)O1 (stereo partly drawn) [Compound 5, Methyl 2-((3R, 5S, 7R, 8R)-8-hydroxy-7-((1E, 3E)-5-((2S, 3S, 5R, 6R)-5-((Z)-4-(3-methoxyisoxazol-5-yl)pent-2-enamido)-3,6-dimethyltetrahydro-2H-pyran-2-yl)-3-methylpenta-1,3-dienyl)-1,6-dioxaspiro[2.5]octan-5-yl)acetate]	310 nM		
CC(=O)O[C@@H](C)/C=C\C(=O)N[C@@H]1C[C@H](C)[C@H](C/C=C(C)/C=C/[C@H]2O[C@H](CC(=O)O)C[C@@]3(CO3)[C@@H]2O)O[C@@H]1C [Thailanstatin A]		4 nM	3 nM
